Assay results as given in patent publication US12421205B2, “GLP-1 receptor agonist” (HYUNDAI PHARM CO., LTD., priority 2019, dated 2025).
pEC50: −log10 of the molar value.

How the values were obtained:
human GLP-1 receptor = biological target: T1, human GLP-1 receptor (Homo sapiens, UniProt P43220); experiment: cAMP activity test (cAMP dynamic HTRF kit) in CHO-K1/GLP-1 receptor-expressing cells; assay type: cell-based; settings: cAMP activity, CHO-K1/GLP-1 receptor-expressing cells; read-out: EC50
T1 construct: host or cells: CHO-K1
Method: The next day, the medium was removed, and a 50 uL of HBSS medium containing 0.1% BSA, 0.5 mM IBMX, and 5 mM HEPES was added to each well. […] The cAMP activity was measured according to the manufacturer's instructions using the cAMP dynamic HTRF kit (Cisbio, 62AM4PEC). After incubation, the medium was discarded, and the cells were lysed. cAMP-d2 and anti-cAMP cryptate conjugate were added thereto and reacted for 3 hours. […] Intracellular cAMP competes with cAMP-d2 for anti-cAMP cryptate, and the measured signal of fluorescence resonance energy transfer (FRET) is inversely proportional to intracellular cAMP.

hERG = biological target: T2, hERG (Homo sapiens, UniProt Q12809); experiment: hERG inhibition test (Predictor hERG Fluorescence Polarization assay kit); assay type: binding; settings: probe kit Tracer (fluorescent hERG ligand), hERG % inhibition at 10 uM, relative to E-4031 and solvent control
T2 construct: purchased Invitrogen PV5365
Method: To measure the hERG (Human ether-a-go-go-related gene) channel inhibition rate of the compound according to the present invention, the following test was performed using a Predictor hERG Fluorescence Polarization assay kit (Invitrogen, PV5365).
Specifically, a test substance was dissolved in DMSO to prepare a 50 mM solution. A 4 mM solution was prepared by diluting the 50 mM solution with DMSO in a U bottom 96-well plate (SPL, 34096), and was then diluted 100-fold with a test buffer to prepare a 40 uM (4×) solution. The positive control E-4031 (3 mM) provided in the kit was diluted 25-fold with a test buffer to prepare a 120 uM solution) 5 uL of the diluted test substance solution was dispensed into a 384-well assay plate (corning, 3677). hERG Membrane (2×) and Tracer (4×) provided in the kit were respectively added at 10 uL and 5 uL, and then subjected to the reaction at room temperature for 2.5 hours. After completion of the reaction, fluorescence polarization (mP) was measured with a Multimode Plate Reader (Perkin-Elmer, Envision) (excitation wavelength of 531 nm, and emission wavelength 579 nm). The value of the percent inhibitory activity (% inhibition) at 10 uM of each test substance was calculated by the following equation, and the results are shown in Table 2: (% inhibition)=100−{(mP of the compound according to the present invention−E-4031 mP)/(mP of the solvent control−E-4031 mP)}×100

T1 sequence (P43220 24-463): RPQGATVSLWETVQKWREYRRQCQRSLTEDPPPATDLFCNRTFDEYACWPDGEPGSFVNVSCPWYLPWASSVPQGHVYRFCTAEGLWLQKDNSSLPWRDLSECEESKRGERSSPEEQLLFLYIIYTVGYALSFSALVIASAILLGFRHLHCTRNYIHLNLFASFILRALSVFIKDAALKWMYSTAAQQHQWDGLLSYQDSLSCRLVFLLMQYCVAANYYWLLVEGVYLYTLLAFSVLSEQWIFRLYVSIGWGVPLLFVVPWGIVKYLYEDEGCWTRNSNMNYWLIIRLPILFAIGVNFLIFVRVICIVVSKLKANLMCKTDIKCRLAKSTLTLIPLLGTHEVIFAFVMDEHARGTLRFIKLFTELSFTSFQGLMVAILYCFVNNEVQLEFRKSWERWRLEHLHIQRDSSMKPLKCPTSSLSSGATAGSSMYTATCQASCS
T2 sequence (Q12809 whole entry): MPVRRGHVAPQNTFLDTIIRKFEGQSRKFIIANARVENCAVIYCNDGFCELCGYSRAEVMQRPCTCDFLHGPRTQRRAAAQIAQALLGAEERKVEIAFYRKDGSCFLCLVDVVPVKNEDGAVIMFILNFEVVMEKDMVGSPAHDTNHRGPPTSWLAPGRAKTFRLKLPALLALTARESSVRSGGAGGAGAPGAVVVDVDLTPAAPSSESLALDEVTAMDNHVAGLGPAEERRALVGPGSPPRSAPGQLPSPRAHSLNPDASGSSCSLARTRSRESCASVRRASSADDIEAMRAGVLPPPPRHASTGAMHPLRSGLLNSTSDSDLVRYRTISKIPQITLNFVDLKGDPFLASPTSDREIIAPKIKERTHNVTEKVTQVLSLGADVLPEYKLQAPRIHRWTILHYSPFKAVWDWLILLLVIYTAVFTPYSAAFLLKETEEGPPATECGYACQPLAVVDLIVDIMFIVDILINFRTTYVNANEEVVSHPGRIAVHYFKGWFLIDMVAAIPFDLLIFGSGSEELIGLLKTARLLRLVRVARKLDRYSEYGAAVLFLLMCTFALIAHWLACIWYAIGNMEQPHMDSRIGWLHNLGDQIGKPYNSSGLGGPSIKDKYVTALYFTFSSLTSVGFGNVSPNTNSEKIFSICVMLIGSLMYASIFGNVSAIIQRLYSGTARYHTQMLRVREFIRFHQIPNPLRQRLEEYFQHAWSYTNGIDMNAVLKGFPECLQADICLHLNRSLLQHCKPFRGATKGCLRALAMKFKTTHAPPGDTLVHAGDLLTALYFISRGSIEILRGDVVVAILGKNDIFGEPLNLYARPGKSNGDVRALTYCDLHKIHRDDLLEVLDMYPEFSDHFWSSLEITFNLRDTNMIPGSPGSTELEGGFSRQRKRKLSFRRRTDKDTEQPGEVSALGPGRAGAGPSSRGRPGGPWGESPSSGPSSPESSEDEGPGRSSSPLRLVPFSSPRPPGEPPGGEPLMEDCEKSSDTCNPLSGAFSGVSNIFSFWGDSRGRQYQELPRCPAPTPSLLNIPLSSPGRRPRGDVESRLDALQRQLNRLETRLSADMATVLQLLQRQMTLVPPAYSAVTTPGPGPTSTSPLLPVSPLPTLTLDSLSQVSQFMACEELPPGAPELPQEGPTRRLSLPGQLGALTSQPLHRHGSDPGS

`O=C(O)c1ccc2nc(Cc3ccc(-c4cccc(OCc5ccc(Cl)cc5F)n4)cc3)n(Cc3cccnc3)c2c1` [Example 1, 2-(4-(6-(4-chloro-2-fluorobenzyloxy)pyridin-2-yl)benzyl)-1-(pyridin-3-ylmethyl)-1H-benzo[d]imidazole-6-carboxylic acid] gave a pEC50 (human GLP-1 receptor) of 8.00 and an inhibition at 2.5 h, 10 µM (hERG) of 1.26%.
For `COCCn1c(Cc2ccc(-c3cccc(OCc4ccc(Cl)cc4F)n3)cc2)nc2ccc(C(=O)O)cc21` [Example 2, 2-(4-(6-(4-chloro-2-fluorobenzyloxy)pyridin-2-yl)benzyl)-1-(2-methoxyethyl)-1H-benzo[d]imidazole-6-carboxylic acid], the pEC50 (human GLP-1 receptor) was 7.20 and the inhibition at 2.5 h, 10 µM (hERG) was -11.9%.
Work on `COCCn1c(Cc2ccc(-c3cccc(OCc4ccc(Cl)cc4F)n3)cc2F)nc2ccc(C(=O)O)cc21` [Example 3, 2-(4-(6-(4-chloro-2-fluorobenzyloxy)pyridin-2-yl)-2-fluorobenzyl)-1-(2-methoxyethyl)-1H-benzo[d]imidazole-6-carboxylic acid] yielded a pEC50 (human GLP-1 receptor) of 7.49 and an inhibition at 2.5 h, 10 µM (hERG) of 8.39%.
Work on `COCCn1c(Cc2ccc(-c3cccc(OCc4ccc(Cl)cc4F)n3)c(C)c2)nc2ccc(C(=O)O)cc21` [Example 4, 2-(4-(6-(4-chloro-2-fluorobenzyloxy)pyridin-2-yl)-3-methylbenzyl)-1-(2-methoxyethyl)-1H-benzo[d]imidazole-6-carboxylic acid] yielded a pEC50 (human GLP-1 receptor) of 6.70 and an inhibition at 2.5 h, 10 µM (hERG) of -2.87%.
`COCCn1c(Cc2ccc(-c3cccc(OCc4ccc(Cl)cc4F)n3)cc2[N+](=O)[O-])nc2ccc(C(=O)O)cc21` [Example 5, 2-(4-(6-(4-chloro-2-fluorobenzyloxy)pyridin-2-yl)-2-nitrobenzyl)-1-(2-methoxyethyl)-1H-benzo[d]imidazole-6-carboxylic acid] was tested, and the pEC50 (human GLP-1 receptor) was 6.21 and the inhibition at 2.5 h, 10 µM (hERG) was 2.74%.
Work on `COCCn1c(Cc2ccc(-c3cccc(OCc4ccc(Cl)cc4F)n3)c(F)c2)nc2ccc(C(=O)O)cc21` [Example 6, 2-(4-(6-(4-chloro-2-fluorobenzyloxy)pyridin-2-yl)-3-fluorobenzyl)-1-(2-methoxyethyl)-1H-benzo[d]imidazole-6-carboxylic acid] yielded a pEC50 (human GLP-1 receptor) of 7.60 and an inhibition at 2.5 h, 10 µM (hERG) of 22.8%.
Work on `COCCn1c(Cc2ccc(-c3cccc(COc4ccc(Cl)cc4F)n3)cc2[N+](=O)[O-])nc2ccc(C(=O)O)cc21` [Example 7, 2-(4-(6-((4-chloro-2-fluorophenoxy)methyl)pyridin-2-yl)-2-nitrobenzyl)-1-(2-methoxyethyl)-1H-benzo[d]imidazole-6-carboxylic acid] yielded a pEC50 (human GLP-1 receptor) of 5.70 and an inhibition at 2.5 h, 10 µM (hERG) of 1.63%.
`N#Cc1ccc(COc2cccc(-c3ccc(Cc4nc5ccc(C(=O)O)cc5n4CC4CCCO4)cc3)c2)c(F)c1` (stereo not drawn) [Example 8, 2-((3′-(4-cyano-2-fluorobenzyloxy)biphenyl-4-yl)methyl)-1-((tetrahydrofuran-2-yl)methyl)-1H-benzo[d]imidazole-6-carboxylic acid] was tested, and the pEC50 (human GLP-1 receptor) was 6.92 and the inhibition at 2.5 h, 10 µM (hERG) was 4.01%.
`N#Cc1ccc(COc2cccc(-c3ccc(Cc4nc5ccc(C(=O)O)cc5n4CC4CCCO4)cc3F)c2)c(F)c1` (stereo not drawn) [Example 9, 2-((3′-(4-cyano-2-fluorobenzyloxy)-2-fluorobiphenyl-4-yl)methyl)-1-((tetrahydrofuran-2-yl)methyl)-1H-benzo[d]imidazole-6-carboxylic acid] was tested, and the pEC50 (human GLP-1 receptor) was 7.12 and the inhibition at 2.5 h, 10 µM (hERG) was 0.48%.
Molecule `O=C(O)c1ccc2nc(Cc3ccc(-c4cccc(OCc5ccc(Cl)cc5F)n4)cc3)n(CC3CCCO3)c2c1` (stereo not drawn) [Example 10, 2-(4-(6-(4-chloro-2-fluorobenzyloxy)pyridin-2-yl)benzyl)-1-((tetrahydrofuran-2-yl)methyl)-1H-benzo[d]imidazole-6-carboxylic acid] has a pEC50 (human GLP-1 receptor) of 7.62 and an inhibition at 2.5 h, 10 µM (hERG) of -7.54%.
`O=C(O)c1ccc2nc(Cc3ccc(-c4cccc(OCc5ccc(Cl)cc5F)n4)c(F)c3)n(CC3CCCO3)c2c1` (stereo not drawn) [Example 11, 2-(4-(6-(4-chloro-2-fluorobenzyloxy)pyridin-2-yl)-3-fluorobenzyl)-1-((tetrahydrofuran-2-yl)methyl)-1H-benzo[d]imidazole-6-carboxylic acid] was tested, and the pEC50 (human GLP-1 receptor) was 8.19 and the inhibition at 2.5 h, 10 µM (hERG) was -1.31%.
Work on `O=C(O)c1ccc2nc(Cc3ccc(-c4cccc(OCc5ccc(Cl)cc5F)n4)cc3)n(Cc3ccco3)c2c1` [Example 12, 2-(4-(6-(4-chloro-2-fluorobenzyloxy)pyridin-2-yl)benzyl)-1-(furan-2-ylmethyl)-1H-benzo[d]imidazole-6-carboxylic acid] yielded a pEC50 (human GLP-1 receptor) of 7.07 and an inhibition at 2.5 h, 10 µM (hERG) of -2.74%.
For `O=C(O)c1ccc2nc(Cc3ccc(-c4cccc(OCc5ccc(Cl)cc5F)n4)cc3F)n(Cc3ccco3)c2c1` [Example 13, 2-(4-(6-(4-chloro-2-fluorobenzyloxy)pyridin-2-yl)-2-fluorobenzyl)-1-(furan-2-ylmethyl)-1H-benzo[d]imidazole-6-carboxylic acid], the pEC50 (human GLP-1 receptor) was 7.46 and the inhibition at 2.5 h, 10 µM (hERG) was -7.76%.
`N#Cc1ccc(COc2cccc(-c3ccc(Cc4nc5ccc(C(=O)O)cc5n4CC4CCCO4)c(F)c3)c2)c(F)c1` (stereo not drawn) [Example 14, 2-((3′-(4-cyano-2-fluorobenzyloxy)-3-fluorobiphenyl-4-yl)methyl)-1-((tetrahydrofuran-2-yl)methyl)-1H-benzo[d]imidazole-6-carboxylic acid] was tested, and the pEC50 (human GLP-1 receptor) was 7.03 and the inhibition at 2.5 h, 10 µM (hERG) was -6.08%.
`N#Cc1ccc(COc2cccc(-c3ccc(Cc4nc5ccc(C(=O)O)cc5n4CC4CCCO4)c(F)c3)n2)c(F)c1` (stereo not drawn) [Example 15, 2-(4-(6-(4-cyano-2-fluorobenzyloxy)pyridin-2-yl)-2-fluorobenzyl)-1-((tetrahydrofuran-2-yl)methyl)-1H-benzo[d]imidazole-6-carboxylic acid] gave a pEC50 (human GLP-1 receptor) of 7.80 and an inhibition at 2.5 h, 10 µM (hERG) of 1.67%.
`O=C(O)c1ccc2nc(Cc3ccc(-c4cccc(OCc5ccc(Cl)cc5F)c4)cc3F)n(CC3CCCO3)c2c1` (stereo not drawn) [Example 16, 2-((3′-(4-chloro-2-fluorobenzyloxy)-3-fluorobiphenyl-4-yl)methyl)-1-((tetrahydrofuran-2-yl)methyl)-1H-benzo[d]imidazole-6-carboxylic acid] gave a pEC50 (human GLP-1 receptor) of 7.09 and an inhibition at 2.5 h, 10 µM (hERG) of -0.94%.
In the case of `N#Cc1ccc(COc2cccc(-c3ccc(Cc4nc5ccc(C(=O)O)cc5n4C[C@@H]4CCO4)c(F)c3)n2)c(F)c1` [Example 73, (S)-2-(4-(6-(4-cyano-2-fluorobenzyloxy)pyridin-2-yl)-2-fluorobenzyl)-1-(oxetan-2-ylmethyl)-1H-benzo[d]imidazole-6-carboxylic acid], the inhibition at 2.5 h, 10 µM (hERG) was -14.6%.
Molecule `O=C(O)c1ccc2nc(Cc3ccc(-c4cccc(OCc5ccc(Cl)cc5F)n4)cc3F)n(C[C@@H]3CCO3)c2c1` [Example 78, (S)-2-(4-(6-(4-chloro-2-fluorobenzyloxy)pyridin-2-yl)-2-fluorobenzyl)-1-(oxetan-2-ylmethyl)-1H-benzo[d]imidazole-6-carboxylic acid] has an inhibition at 2.5 h, 10 µM (hERG) of -17.9%.
`O=C(O)c1ccc2nc(Cc3ccc(-c4cccc(OCc5ccc(Cl)cc5)n4)c(F)c3)n(CC3CCCO3)c2c1` (stereo not drawn) [Example 94, 2-(4-(6-(4-chlorobenzyloxy)pyridin-2-yl)-3-fluorobenzyl)-1-((tetrahydrofuran-2-yl)methyl)-1H-benzo[d]imidazole-6-carboxylic acid] was tested, and the inhibition at 2.5 h, 10 µM (hERG) was 18.9%.
With `O=C(O)c1ccc2nc(Cc3ccc(-c4cccc(OCC5CC5)n4)c(F)c3)n(C[C@@H]3CCO3)c2c1` [Example 135, (S)-2-(4-(6-(cyclopropylmethoxy)pyridin-2-yl)-3-fluorobenzyl)-1-(oxetan-2-ylmethyl)-1H-benzo[d]imidazole-6-carboxylic acid] the inhibition at 2.5 h, 10 µM (hERG) was -14%.
